# Laboratory results as given in ChEMBL document CHEMBL6134893, “The Exploration of Indole-Based LSD1-Targeted Inhibitors for Enhanced Immune Response in Gastric Cancer via the PD-L1/PD-1 Axis” (J Med Chem, 2025).
# Active and inactive are the calls of the source. The rule behind the calls is not given here.
# What was measured:
# [1] = molecular target: T1, Lysine-specific histone demethylase 1A (Homo sapiens, UniProt O60341); experiment: Inhibition of recombinant LSD1 (unknown origin) extracted from Escherichia coli BL21 (DE3) using H3K4me2 peptide as substrate in presence of […] by Amplex Red assay
# [2] = molecular target: T1, Lysine-specific histone demethylase 1A; experiment: Induction of thermal stabilization of LSD1 in human MKN-45 cells incubated for 5 days followed by heat exposure at 40 to 55 degreeC by CETSA; format: cell-based; settings: time 5.0 day
# [3] = molecular target: T1, Lysine-specific histone demethylase 1A; experiment: Inhibition of LSD1 in human MKN-45 cells; format: cell-based
# [4] = molecular target: T1, Lysine-specific histone demethylase 1A; experiment: Inhibition of LSD1 in human MKN-45 cells assessed as decrease in demethylation of H3K4me1 incubated for 5 days by Western blot analysis; format: cell-based; settings: dose 1-4 µM, time 5.0 day
# [5] = molecular target: T1, Lysine-specific histone demethylase 1A; experiment: Inhibition of LSD1 in human MKN-45 cells assessed as decrease in demethylation of H3K4me2 incubated for 5 days by Western blot analysis; format: cell-based; settings: dose 1-4 µM, time 5.0 day
# [6] = system: MKN-45; experiment: Effect on H3K4me3 demethylation in human MKN-45 cells at 1 to 4 uM incubated for 5 days by Western blot analysis; format: functional, cell-based; settings: dose 1-4 µM, time 5.0 day
# [7] = system: MKN-45; experiment: Effect on H3K4me1 demethylation in human MKN-45 cells harboring LSD1-KO at 1 to 4 uM incubated for 5 days by Western blot analysis; format: functional, cell-based; settings: dose 1-4 µM, time 5.0 day
# [8] = system: MKN-45; experiment: Effect on H3K4me2 demethylation in human MKN-45 cells harboring LSD1-KO at 1 to 4 uM incubated for 5 days by Western blot analysis; format: functional, cell-based; settings: dose 1-4 µM, time 5.0 day
# [9] = system: MKN-45; experiment: Inhibition of cell invasion in human MKN-45 cells at 1 to 4 uM incubated for 2 days by crystal violet staining based transwell assay; format: functional; settings: dose 1-4 µM, time 2.0 day
# [10] = molecular target: T1, Lysine-specific histone demethylase 1A; experiment: Inhibition of LSD1 in human MKN-45 cells assessed as reduction in PD-L1 level incubated for 5 days by Western blot analysis; format: cell-based; settings: dose 1-4 µM, time 5.0 day
# [11] = system: MKN-45; experiment: Inhibition of cell migration in human MKN-45 cells at 1 to 4 uM incubated up to 48 hrs by wound healing assay; format: functional, cell-based; settings: dose 1-4 µM
# [12] = molecular target: Lysine-specific histone demethylase 1A (Mus musculus) (UniProt Q6ZQ88); experiment: Inhibition of LSD1 in mouse MFC cells assessed as reduction in PD-L1 level incubated for 5 days by Western blot analysis; format: cell-based; settings: time 5.0 day
# [13] = molecular target: T1, Lysine-specific histone demethylase 1A; experiment: Inhibition of LSD1 in human MKN-45 cells assessed as accumulation of membrane PD-L1 at 1 uM incubated for 5 days (reference value: 58.4 %); format: cell-based; design: scale not given: the % may be the effect or the level left; settings: time 5.0 day
# [14] = molecular target: T1, Lysine-specific histone demethylase 1A; experiment: Inhibition of LSD1 in human MKN-45 cells assessed as accumulation of membrane PD-L1 at 2 uM incubated for 5 days; format: cell-based; design: scale not given: the % may be the effect or the level left; settings: time 5.0 day
# [15] = molecular target: T1, Lysine-specific histone demethylase 1A; experiment: Inhibition of LSD1 in human MKN-45 cells assessed as accumulation of membrane PD-L1 at 4 uM incubated for 5 days (reference value: 58.4 %); format: cell-based; design: scale not given: the % may be the effect or the level left; settings: time 5.0 day
# [16] = molecular target: Lysine-specific histone demethylase 1A (Mus musculus) (UniProt Q6ZQ88); experiment: Inhibition of LSD1 in mouse MFC cells assessed as accumulation of membrane PD-L1 at 1 uM incubated for 5 days (reference value: 63.0 %); format: cell-based; design: scale not given: the % may be the effect or the level left; settings: time 5.0 day
# [17] = molecular target: Lysine-specific histone demethylase 1A (Mus musculus) (UniProt Q6ZQ88); experiment: Inhibition of LSD1 in mouse MFC cells assessed as accumulation of membrane PD-L1 at 2 uM incubated for 5 days; format: cell-based; design: scale not given: the % may be the effect or the level left; settings: time 5.0 day
# [18] = molecular target: Lysine-specific histone demethylase 1A (Mus musculus) (UniProt Q6ZQ88); experiment: Inhibition of LSD1 in mouse MFC cells assessed as accumulation of membrane PD-L1 at 4 uM incubated for 5 days (reference value: 63.0 %); format: cell-based; design: scale not given: the % may be the effect or the level left; settings: time 5.0 day
# [19] = system: MKN-45; experiment: Effect on PD-L1 expression in human MKN-45 cells harboring LSD1-KO at 1 to 4 uM incubated for 5 days by Western blot analysis; format: functional, cell-based; settings: dose 1-4 µM, time 5.0 day
# [20] = molecular target: Programmed cell death protein 1/Programmed cell death 1 ligand 1 (Homo sapiens) (UniProt Q15116+Q9NZQ7); experiment: Inhibition of PD-1/PD-L1 interaction in human MKN-45 cells pretreated for 5 days followed by PD-1-Fc addition by DAPI staining based confocal microscopy; format: cell-based; settings: dose 1-4 µM, time 5.0 day
# [21] = system: MKN-45; experiment: Induction of T-cell killing response in human MKN-45 cells assessed as decrease in cell viability pretreated for 5 days followed by co-culturing with human PBMC-derived T cells for 4 days by CCK8 assay; format: functional, cell-based; settings: dose 1-4 µM, time 5.0 day
# [22] = system: MKN-45; experiment: Induction of T-cell killing response in human MKN-45 cells assessed as increase in IFN-gamma secretion at 1 to 4 uM pretreated for 5 days followed by co-culturing with human PBMC-derived T cells for 4 days by ELISA; format: functional, cell-based; settings: dose 1-4 µM, time 5.0 day
# [23] = system: MKN-45; experiment: Induction of T-cell killing response in human MKN-45 cells assessed as increase in IL-2 secretion at 1 to 4 uM pretreated for 5 days followed by co-culturing with human PBMC-derived T cells for 4 days by ELISA; format: functional, cell-based; settings: dose 1-4 µM, time 5.0 day
# [24] = system: MKN-45; experiment: Induction of T-cell killing response in human MKN-45 cells harboring LSD1-KO assessed as decrease in cell viability at 1 to 4 uM pretreated for 5 days followed by co-culturing with human PBMC-derived T cells for 4 days by CCK8 assay; format: functional, cell-based; settings: dose 1-4 µM, time 5.0 day
# [25] = system: MFC; experiment: Induction of T-cell killing response in mouse MFC cells assessed as decrease in cell viability at 1 to 4 uM pretreated for 5 days followed by co-culturing with human PBMC-derived T cells for 4 days by CCK8 assay; format: functional, cell-based; settings: dose 1-4 µM, time 5.0 day
# [26] = system: MFC; experiment: Induction of T-cell killing response in mouse MFC cells assessed as increase in IFN-gamma secretion at 1 to 4 uM pretreated for 5 days followed by co-culturing with human PBMC-derived T cells for 4 days by ELISA; format: functional, cell-based; settings: dose 1-4 µM, time 5.0 day
# [27] = Toxicity in 615 mouse implanted with mouse MFC cells assessed as body weight change at 10 to 50 mg/kg, IG treated daily for 14 days; format: organism-based; settings: in vivo, po, 336 h, dose 10-50 mg/kg, time 14 day
# [28] = system: MFC; experiment: Antitumor activity against mouse MFC cells implanted in 615 mouse assessed as tumor growth suppression treated intragastrically daily for 14 days; format: functional, cell-based; settings: dose 10-50 mg/kg, route ig, time 14.0 day
# [29] = system: MFC; experiment: Antitumor activity against mouse MFC cells implanted in 615 mouse assessed as decrease in tumor weight at 10 to 50 mg/kg, IG treated daily for 14 days; format: functional, organism-based; settings: dose 10-50 mg/kg, time 14.0 day
# [30] = Toxicity in 615 mouse implanted with mouse MFC cells assessed as histological change in heart at 10 to 50 mg/kg, IG treated daily for 14 days by H and E staining based analysis; format: organism-based; settings: in vivo, po, 336 h, dose 10-50 mg/kg, time 14 day
# [31] = Toxicity in 615 mouse implanted with mouse MFC cells assessed as histological change in liver at 10 to 50 mg/kg, IG treated daily for 14 days by H and E staining based analysis; format: organism-based; settings: in vivo, po, 336 h, dose 10-50 mg/kg, time 14 day
# [32] = Toxicity in 615 mouse implanted with mouse MFC cells assessed as histological change in spleen at 10 to 50 mg/kg, IG treated daily for 14 days by H and E staining based analysis; format: organism-based; settings: in vivo, po, 336 h, dose 10-50 mg/kg, time 14 day
# [33] = Toxicity in 615 mouse implanted with mouse MFC cells assessed as histological change in lung at 10 to 50 mg/kg, IG treated daily for 14 days by H and E staining based analysis; format: organism-based; settings: in vivo, po, 336 h, dose 10-50 mg/kg, time 14 day
# [34] = Toxicity in 615 mouse implanted with mouse MFC cells assessed as histological change in kidney at 10 to 50 mg/kg, IG treated daily for 14 days by H and E staining based analysis; format: organism-based; settings: in vivo, po, 336 h, dose 10-50 mg/kg, time 14 day
# [35] = system: MFC; experiment: Antitumor activity against mouse MFC cells implanted in 615 mouse assessed as decrease Ki67 expression at 10 to 50 mg/kg, IG treated daily for 14 days by IHC analysis; format: functional, organism-based; settings: dose 10-50 mg/kg, time 14.0 day
# [36] = system: MFC; experiment: Antitumor activity against mouse MFC cells implanted in 615 mouse assessed as decrease PD-L1 expression treated intragastrically daily for 14 days by Western blot analysis; format: functional, cell-based; settings: dose 10-50 mg/kg, route ig, time 14.0 day
# [37] = system: Mus musculus; experiment: In vivo induction of T-cell response in mouse MFC cells implanted in 615 mouse assessed as increase in IFN-gamma mRNA level at 10 to 50 mg/kg, IG treated daily for 14 days by PCR analysis; format: functional, organism-based; settings: dose 10-50 mg/kg, time 14.0 day
# [38] = system: Mus musculus; experiment: In vivo induction of T-cell response in mouse MFC cells implanted in 615 mouse assessed as increase in IL-2 mRNA level at 10 to 50 mg/kg, IG treated daily for 14 days by PCR analysis; format: functional, organism-based; settings: dose 10-50 mg/kg, time 14.0 day
# [39] = system: MFC; experiment: In vivo induction of T-cell infiltration in mouse MFC cells implanted in 615 mouse assessed as increase in CD3+ CD8+ T cells at 10 mg/kg, IG treated daily for 14 days by flow cytometry (reference value: 2.79 %); format: functional; settings: time 14 day
# [40] = system: MFC; experiment: In vivo induction of T-cell infiltration in mouse MFC cells implanted in 615 mouse assessed as increase in CD3+ CD8+ T cells at 25 mg/kg, IG treated daily for 14 days by flow cytometry (reference value: 2.79 %); format: functional; settings: time 14 day
# [41] = system: MFC; experiment: In vivo induction of T-cell infiltration in mouse MFC cells implanted in 615 mouse assessed as increase in CD3+ CD8+ T cells at 50 mg/kg, IG treated daily for 14 days by flow cytometry (reference value: 2.79 %); format: functional; settings: time 14 day
smiles,measurement,setting,value
C=C1C(=O)OCC1C(O)c1cn(S(=O)(=O)c2ccc(N(C)C)c([N+](=O)[O-])c2)c2ccc(Cl)cc12 (stereo unspecified),IC50,[1],80 nM
same,Activity,[2],Active
same,IC50,[3],80.3 nM
same,inhibition,[4],Dose-dependent-effect
same,inhibition,[5],Dose-dependent-effect
same,Activity,[6],No effect
same,Activity,[7],No effect
same,Activity,[8],No effect
same,inhibition,[9],Active; Effect Was Better Than Ory-1001
same,inhibition,[10],Dose-dependent-effect
same,inhibition,[11],Active; Effect Was Better Than Ory-1001
same,inhibition,[12],Dose-dependent-effect
same,Activity,[13],49.5%
same,Activity,[14],47.3%
same,Activity,[15],39.1%
same,Activity,[16],59.7%
same,Activity,[17],45.6%
same,Activity,[18],16%
same,Activity,[19],No effect
same,inhibition,[20],Dose-dependent-effect
same,Activity,[21],Dose-dependent-effect
same,Activity,[22],Active
same,Activity,[23],Active
same,Activity,[24],inactive
same,Activity,[25],Active
same,Activity,[26],Active
same,Activity,[27],Non-toxic
same,Activity,[28],Dose-dependent-effect
same,Activity,[29],Active
same,Activity,[30],Non-toxic
same,Activity,[31],Non-toxic
same,Activity,[32],Non-toxic
same,Activity,[33],Non-toxic
same,Activity,[34],Non-toxic
same,Activity,[35],Active
same,Activity,[36],Dose-dependent-effect
same,Activity,[37],Active
same,Activity,[38],Active
same,Activity,[39],4.92%
same,Activity,[40],6.46%
same,Activity,[41],16.6%
